Patent publication US20250092044A1, “Kinase Inhibitors” (Incyte Corporation, priority 2023, published 2025)
Converted amounts (≈) assume the structure as drawn.

Columns and labels:
[1] = test system: STAT5 (Tyr694) phosphorylation in SET-2 cells; assay: STAT5 (Tyr694) Phosphorylation Cell Based Assay; conditions: Homo sapiens, 2 hours, read-out: SET2 IC50
Outline: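 SET-2 cells in RPMI with 10% FBS were exposed to compound for 2 h at 37 °C (0.5% DMSO final). After lysis, phospho-STAT5 (Tyr694) was read by HTRF (665/620 ratio) after 24 h antibody incubation at room temperature. IC50 was fitted from percent control activity versus log concentration.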

[2] = molecular target: pseudo-kinase domain (JH2) of human V617F mutant JAK2 (Homo sapiens (Human), UniProt O60674, F794H/V617F/W659A/W777A); assay: JAK2 LanthaScreen JH2-V617F Binding Assay; conditions: read-out: JH2 V617F Bind IC50
Sequence of pseudo-kinase domain (JH2) of human V617F mutant JAK2 (O60674 536-812 V617F/W659A/W777A/F794H): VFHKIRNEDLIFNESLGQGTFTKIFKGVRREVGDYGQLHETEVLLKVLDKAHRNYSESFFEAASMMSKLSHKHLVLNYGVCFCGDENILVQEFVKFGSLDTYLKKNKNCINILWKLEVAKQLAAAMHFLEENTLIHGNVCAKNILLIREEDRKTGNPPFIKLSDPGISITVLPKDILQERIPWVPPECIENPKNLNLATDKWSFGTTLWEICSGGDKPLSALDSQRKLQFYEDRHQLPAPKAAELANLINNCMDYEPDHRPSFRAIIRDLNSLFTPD
Outline: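 Biotinylated His-Avi JAK2 JH2 (aa 536-812, V617F plus W659A/W777A/F794H; 0.26 nM) incubated 1 h at 25 °C with compound, 50 nM fluorescent JH2 tracer and 0.25 nM streptavidin-Tb in Tris pH 7.5 buffer. TR-FRET tracer displacement read; nonspecific binding with 2 mM ATP; IC50 from four-parameter fit.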

[3] = FaSSIF Solubility Assay; assay type: physicochemical; conditions: FaSSIF (fasted state simulated intestinal fluid), 25 °C, pH 6.5, fassif, thermodynamic from solid, FaSSIF pH=6.5, 25° C., read-out: Solubility Fassif
From the text: The FaSSIF (Fasted State Simulated Intestinal Fluid) solubility assay can predict how an oral drug is likely to be dissolved and potentially absorbed in the upper intestine after drinking a glass of water. FaSSIF solubility assay utilizes biorelevant intestinal media (Biorelevant, Part #FFF01) comprised of physiological surfactants, bile salts, and phospholipids that are present in the gastrointestinal fluids it mimics. FaSSIF (pH=6.5) has the average pH of a fasted intestinal fluid with similar osmolarity. The FaSSIF buffer was prepared by adding 20 mL of phosphate buffer to FaSSIF Powder. The buffer was then added to the dry compound of interest at a concentration of 1 mg/mL and then incubated at 25° C. for 24 hours in a Rototherm Plus (Part #H2024). After incubation, the Eppendorf tubes were centrifuged and run on an Agilent 1260 LC-MS. The LC-MS method is a 5 min gradient method of 2% to 95% acetonitrile with water (0.05% TFA) using a Sunfire C18, 5 um 2.1×50 mm (Part #186002539) column. A dry reference compound of interest was diluted to a known 1 mg/mL concentration in 1:1 of water and acetonitrile. Step-wise serial dilutions were performed and run on an Agilent 1260 LC-MS using the same conditions to make a standard curve. The area under the curve is reported for the compound of interest in FaSSIF buffer and the reference standards. Calculations were performed and the predicted solubility, μg/mL, was reported for compounds of the examples.

SMILES: [2H]C([2H])([2H])n1c(=O)n([C@@H]2CC[C@@H](NC(=O)OC)C2)c2c3c(-c4ccc5c(cnn5C(C)C)c4)c(-c4ccc(CN(C)C)cc4)[nH]c3ncc21 [Example 26, Methyl ((1R,3R)-3-(7-(4-((dimethylamino)methyl)phenyl)-8-(1-isopropyl-1H-indazol-5-yl)-3-(methyl-d3)-2-oxo-3,6-dihydroimidazo[4,5-d]pyrrolo[2,3-b]pyridin-1(2H)-yl)cyclopentyl)carbamate]
- IC50 [1]: ≤ 300 nM
- IC50 [2]: ≤ 10 nM
- solubility at 24 h [3]: > 500 µg/mL

SMILES: [2H]C([2H])([2H])N(Cc1ccc(-c2[nH]c3ncc4c(c3c2-c2ccc3c(c2)CC(C)(C)O3)n([C@@H]2CC[C@@H](NC(=O)OC)C2)c(=O)n4C([2H])([2H])[2H])cc1)C([2H])([2H])[2H] [Example 25, Methyl ((1R,3R)-3-(7-(4-((bis(methyl-d3)amino)methyl)phenyl)-8-(2,2-dimethyl-2,3-dihydrobenzofuran-5-yl)-3-(methyl-d3)-2-oxo-3,6-dihydroimidazo[4,5-d]pyrrolo[2,3-b]pyridin-1(2H)-yl)cyclopentyl)carbamate]
- IC50 [1]: ≤ 300 nM
- IC50 [2]: ≤ 10 nM
- solubility at 24 h [3]: 50 to 500 µg/mL (≈ 80.9 to 809 µM)

SMILES: [2H]C([2H])([2H])N(Cc1ccc(-c2[nH]c3ncc4c(c3c2-c2ccc3c(c2)COC3(C)C)n([C@@H]2CC[C@@H](NC(=O)OC)C2)c(=O)n4C([2H])([2H])[2H])cc1)C([2H])([2H])[2H] [Example 29, Methyl ((1R,3R)-3-(7-(4-((bis(methyl-d3)amino)methyl)phenyl)-8-(1,1-dimethyl-1,3-dihydroisobenzofuran-5-yl)-3-(methyl-d3)-2-oxo-3,6-dihydroimidazo[4,5-d]pyrrolo[2,3-b]pyridin-1(2H)-yl)cyclopentyl)carbamate]
- IC50 [1]: ≤ 300 nM
- IC50 [2]: ≤ 10 nM
- solubility at 24 h [3]: > 500 µg/mL

SMILES: COC(=O)N[C@@H]1CC[C@@H](n2c(=O)n(C)c3cnc4[nH]c(-c5ccc(CN(C)C)cc5)c(-c5ccc(F)cc5)c4c32)C1 [Example 28, Methyl ((1R,3R)-3-(7-(4-((dimethylamino)methyl)phenyl)-8-(4-fluorophenyl)-3-methyl-2-oxo-3,6-dihydroimidazo[4,5-d]pyrrolo[2,3-b]pyridin-1(2H)-yl)cyclopentyl)carbamate]
- IC50 [1]: 300 to 800 nM
- IC50 [2]: ≤ 10 nM
- solubility at 24 h [3]: > 500 µg/mL
